The target of data set [1] is T1, Carnitine O-palmitoyltransferase 1, muscle isoform (Rattus norvegicus, UniProt Q63704).
T1 sequence (Q63704 whole entry): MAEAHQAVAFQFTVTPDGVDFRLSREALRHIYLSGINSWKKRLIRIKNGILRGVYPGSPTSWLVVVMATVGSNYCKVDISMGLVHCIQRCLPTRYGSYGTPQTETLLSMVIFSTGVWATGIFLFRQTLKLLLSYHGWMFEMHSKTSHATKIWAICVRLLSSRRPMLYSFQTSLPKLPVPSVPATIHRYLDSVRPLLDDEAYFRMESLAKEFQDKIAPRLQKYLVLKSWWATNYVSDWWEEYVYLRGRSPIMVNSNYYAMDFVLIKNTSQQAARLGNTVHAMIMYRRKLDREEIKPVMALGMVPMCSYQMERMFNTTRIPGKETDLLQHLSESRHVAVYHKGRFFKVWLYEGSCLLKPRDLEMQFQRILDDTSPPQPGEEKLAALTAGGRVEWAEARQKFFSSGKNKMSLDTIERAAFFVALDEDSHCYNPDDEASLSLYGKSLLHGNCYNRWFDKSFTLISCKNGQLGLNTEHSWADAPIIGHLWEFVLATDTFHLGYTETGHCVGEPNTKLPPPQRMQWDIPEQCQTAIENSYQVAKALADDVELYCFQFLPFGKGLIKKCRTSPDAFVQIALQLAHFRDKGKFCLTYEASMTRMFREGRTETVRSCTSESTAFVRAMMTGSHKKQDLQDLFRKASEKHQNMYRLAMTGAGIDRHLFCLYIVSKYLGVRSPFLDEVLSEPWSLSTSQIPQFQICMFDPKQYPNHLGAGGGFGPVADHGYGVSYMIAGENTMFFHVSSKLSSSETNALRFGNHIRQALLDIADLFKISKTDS
Kind of data set: (§1) Compound was evaluated for its ability to inhibit carnitine palmitoyltransferase I activity in intact mitochondria from rat heart.

Data set [2] concerns the target T2, Carnitine O-palmitoyltransferase 1, liver isoform (Rattus norvegicus, UniProt P32198).
T2 sequence (P32198 whole entry): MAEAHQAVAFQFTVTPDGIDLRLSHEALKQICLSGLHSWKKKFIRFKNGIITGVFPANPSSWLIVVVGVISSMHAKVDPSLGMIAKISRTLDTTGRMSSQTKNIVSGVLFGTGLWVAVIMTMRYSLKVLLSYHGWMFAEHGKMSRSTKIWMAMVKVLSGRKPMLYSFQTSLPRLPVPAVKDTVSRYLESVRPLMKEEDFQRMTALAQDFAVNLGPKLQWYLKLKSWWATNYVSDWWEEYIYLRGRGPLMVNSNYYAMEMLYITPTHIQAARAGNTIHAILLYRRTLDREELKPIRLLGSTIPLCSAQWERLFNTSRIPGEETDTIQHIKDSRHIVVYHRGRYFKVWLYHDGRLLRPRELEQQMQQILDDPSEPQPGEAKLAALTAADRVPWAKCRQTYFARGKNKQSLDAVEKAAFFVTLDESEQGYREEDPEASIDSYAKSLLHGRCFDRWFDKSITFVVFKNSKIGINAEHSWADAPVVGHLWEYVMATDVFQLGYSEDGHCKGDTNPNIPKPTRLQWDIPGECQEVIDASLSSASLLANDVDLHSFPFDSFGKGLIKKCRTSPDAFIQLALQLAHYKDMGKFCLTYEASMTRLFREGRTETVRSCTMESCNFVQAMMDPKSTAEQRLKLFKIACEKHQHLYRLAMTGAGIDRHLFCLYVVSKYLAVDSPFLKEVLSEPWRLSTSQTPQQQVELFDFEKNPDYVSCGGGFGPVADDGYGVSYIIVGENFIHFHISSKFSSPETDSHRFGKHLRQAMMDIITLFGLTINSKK
The data set can be described thus: (§2) Compound was evaluated for its ability to inhibit carnitine palmitoyltransferase I activity in intact mitochondria from rat liver.

Compound in data set [3]: CCCCCCCCCCCCCCC[C@@]1(O)C[N+](C)(C)C[C@@H](CC(=O)[O-])O1
The description is as §2.

Compound in data set [4]: CCCCCCCCCCCCCCC[C@@]1(O)C[N+](C)(C)C[C@@H](CC(=O)[O-])O1
Described as §1.

The values below come from ChEMBL document CHEMBL1127073, “(+)-Hemipalmitoylcarnitinium strongly inhibits carnitine palmitoyltransferase-I in intact mitochondria” (J Med Chem, 1993).

For orientation: Ki means the equilibrium dissociation constant of an inhibitor or competing ligand from its target. Low values mean tighter binding, high ones weaker binding. The term Km denotes the concentration of substrate that gives half-maximal velocity.

For `CCCCCCCCCCCCCCC[C@@]1(O)C[N+](C)(C)C[C@@H](CC(=O)[O-])O1` [HEMIACYLCARNITINIUM], the Ki in data set [1] is 2.8 µM; in data set [2] it was 4.2 µM.

B1: Carnitine O-palmitoyltransferase 1, liver isoform (Rattus norvegicus), P32198 (protein)
chain: T2 sequence (P32198 whole entry)
For B1, the Km in data set [3] is 350 µM.

B2: Carnitine O-palmitoyltransferase 1, muscle isoform (Rattus norvegicus), Q63704 (protein)
chain: T1 sequence (Q63704 whole entry)
For the molecule B2, in data set [4], the Km came out at 500 µM.
